Source: paper PMC4411898, “Impact of kinesin Eg5 inhibition by 3,4-dihydropyrimidin-2(1H)-one derivatives on various breast cancer cell features” (BMC Cancer, 2015)

Columns and labels:
MCF-7 cells [1] = test: CD44+/CD24- expression analysis, MCF-7; assay type: cell-based, human; conditions: 24 h; for CD44-/CD24- subpopulation, MCF-7 (mean ± SEM): 4m 1.0 mM, 4bt 0.8 mM, 4p 0.4 mM, 4bc 1.0 mM, 4x 0.8 mM, monastrol 1.0 mM; for CD44+/CD24+ subpopulation, MCF-7 (mean ± SEM) / CD44-/CD24+ subpopulation, MCF-7 (mean ± SEM) / CD44+/CD24- subpopulation, MCF-7 (mean ± SEM): concentrations as E28; for CD44+/CD24- subpopulation, MCF-7 (mean ± SEM): control 0.38 ± 0.18
Experimental: (§1) For proliferation assays, cells were treated with IC50 concentrations of each compound. Adherent and floating cells were harvested at the same tube and pelleted by centrifugation at 300 g for 5 minutes and stained. Data acquisition of these two fractions put together was performed on a FACSCalibur flow cytometer using CellQuest software and analysed using the FloJo Software. Expression level of CD44 and CD24 in treated and control MCF-7 or MDA-MB-231 cells was measured after 24 h of treatment.

MDA-MB-231 cells [2] = test: Apoptosis and necrosis assay (Annexin-V/PI flow cytometry), MDA-MB-231; assay type: cell-based, human; conditions: 72 h; 4m 1.0 mM, 4bt 0.8 mM, 4p 0.4 mM, 4bc 1.0 mM, 4x 0.8 mM
Experimental: (§2) For proliferation assays, cells were treated with IC50 concentrations of each compound. Adherent and floating cells were harvested at the same tube and pelleted by centrifugation at 300 g for 5 minutes and stained. Data acquisition of these two fractions put together was performed on a FACSCalibur flow cytometer using CellQuest software and analysed using the FloJo Software. Untreated control cells and DHPMs-treated for 72 h cell samples were stained with Annexin-V-FITC or Annexin-V-Alexa Fluor® 680 and propidium iodide according to the manufacturer’s instructions.

MCF-7 cells [3] = test: Morphological alterations under inverted light microscope, MCF-7; assay type: cell-based, human; conditions: 72 h, maximum non-cytotoxic concentration to normal cells
Experimental: Figure 2 DHPM derivatives cause severe morphological alterations on breast cancer cells. MCF-7 and MDA-MB-231 cells were treated with the maximum non-cytotoxic concentration to normal cells for 72 h and morphological alterations analyzed under an inverted light microscope. Cells with elongated morphology, adherent to the surface and normal size are shown by arrows. Cells with size reduction, absence of focal adhesion points, rounded morphology and detached from the surface where they had been seeded are shown by arrowheads.

[4] = test system: Fibroblasts (primary culture from healthy human dental pulp); conditions: fibroblasts, 72 h treatment, MTT
Experimental: MCF-7 cell line and primary culture of connective tissue cells were provided by the Laboratory of Morphology, University of Brasília (Brasília, BR). MDA-MB-231 cells were purchased from Rio de Janeiro Cell Bank (RJCB - Rio de Janeiro, BR). Cell line characterization and authentication was conducted by RJCB using short tandem repeat profiling. Primary culture cells were taken from healthy human dental pulp predominantly consisting of fibroblasts and were used as normal control cells. MCF-7 cells and fibroblasts were grown in complete DMEM and maintained at 37°C with 5% CO2. MDA-MB-231 cells were grown in Leibovitz L15 medium at 37°C without CO2. Culture media were supplemented with 10% fetal bovine serum and 25 μg/mL of gentamicin.
Cytotoxicity was determined using 3-(4,5-dimethylthiazol-2-yl)-2,5-diphenylterazolium bromide (MTT) according to the manufacturer’s instructions. Absorbance readings were measured by a spectrophotometer. Cell viability was normalized to control (vehicle only).

MCF-7 cells [5] = test: Apoptosis and necrosis assay (Annexin-V/PI flow cytometry), MCF-7; assay type: cell-based, human; conditions: 72 h; 4m 1.0 mM, 4bt 0.8 mM, 4p 0.4 mM, 4bc 1.0 mM, 4x 0.8 mM
Experimental: as §2

MCF-7 cells [6] = test: α-tubulin immunostaining, spindle formation; assay type: cell-based, human; conditions: for Monoastral Spindle (%) 24 h / Bipolar Spindle (%) 24 h / Mitotic spindle / microtubule organization (α-tubulin immunostaining): MCF-7, 24 h; for Monoastral Spindle (%) 24 h / Bipolar Spindle (%) 24 h / Bipolar Spindle (%) 48 h / Monoastral Spindle (%) 48 h: n = 300 dividing cells; for Monoastral Spindle (%) 24 h / Mitotic spindle / microtubule organization (α-tubulin immunostaining): 4m 1.0 mM, 4bt 0.8 mM, 4p 0.4 mM, 4bc 1.0 mM, 4x 0.8 mM; for Monoastral Spindle (%) 24 h: monastrol 0.1 mM; for Bipolar Spindle (%) 24 h / Bipolar Spindle (%) 48 h / Monoastral Spindle (%) 48 h: concentrations as E14; for Bipolar Spindle (%) 48 h / Monoastral Spindle (%) 48 h: MCF-7, 48 h
Experimental: Aliquots of 7 × 10^4 MCF-7 cells were seeded onto 12 mm round glass coverslips placed in the base of each well of a 24-well plate. After adhesion, cells were treated for 24 and 48 h with the pre-selected compounds at their maximum non-cytotoxic concentrations to normal cells or incubated with culture medium only for the same duration (negative control). Cells were washed with PBS, fixed with 3.7% formaldehyde, permeabilized with 0.1% Triton X-100 and blocked in PBS supplemented with 1% skimmed milk, 2.5% bovine serum albumin (BSA) and 8% fetal bovine serum (FBS) at room temperature. Cells were incubated overnight with mouse anti-α-tubulin antibody (1:500) at 4°C, followed by incubation with a secondary antibody: Alexa Fluor 488 rabbit anti-mouse IgG (1:400), for 1 hour at 37°C. Nuclei were stained with 300 nM DAPI. The coverslips were mounted with ProLong Gold Antifade and specimens observed under a laser scanning confocal microscope.
Table S1. Quantification of monopolar spindles occurred as a result of treatment with DHPM derivatives. MCF-7 control cells or cells treated for 24 or 48 h with 4m (1 mM), […]
antibody. The percentage of dividing cells showing presence of monoastral and bipolar spinles formation determined (n = 300).
Experimental Group Monoastral Spindle (%) Bipolar Spindle (%)

MDA-MB-231 cells [7] = test: CD44+/CD24- expression analysis, MDA-MB-231; assay type: cell-based, human; conditions: 24 h; for CD44-/CD24- subpopulation, MDA-MB-231 (mean ± SEM): 4m 1.0 mM, 4bt 0.8 mM, 4p 0.4 mM, 4bc 1.0 mM, 4x 0.8 mM, monastrol 1.0 mM; for CD44-/CD24+ subpopulation, MDA-MB-231 (mean ± SEM) / CD44+/CD24+ subpopulation, MDA-MB-231 (mean ± SEM) / CD44+/CD24- subpopulation, MDA-MB-231 (mean ± SEM): concentrations as E32; for CD44+/CD24+ subpopulation, MDA-MB-231 (mean ± SEM): control 1.507 ± 0.47; for CD44+/CD24- subpopulation, MDA-MB-231 (mean ± SEM): untreated control 98.45 ± 0.47
Experimental: as §1

MCF-7 cells [8] = test: MTT cell viability assay, MCF-7; assay type: cell-based, human; conditions: for IC50: 72 h treatment, MTT, read-out: IC50 MCF-7; for Effect on cell viability, MCF-7: all concentrations tested 100 μM – 1.00 mM, 72 h
Experimental: (§3) Absorbance readings were measured by a spectrophotometer. Cell viability was normalized to control (vehicle only).

MDA-MB-231 cells [9] = test: MTT cell viability assay, MDA-MB-231; assay type: cell-based, human; conditions: for IC50: 72 h treatment, MTT, read-out: IC50 MDA-MB-231; for Effect on cell viability, MDA-MB-231: all concentrations tested 100 μM – 1.00 mM, 72 h
Experimental: as §3

| SMILES | CD44-/CD24- subpopulation, MCF-7 (mean ± SEM) (MCF-7 cells [1]) | CD44+/CD24+ subpopulation, MCF-7 (mean ± SEM) (MCF-7 cells [1]) | CD44-/CD24+ subpopulation, MCF-7 (mean ± SEM) (MCF-7 cells [1]) | CD44+/CD24- subpopulation, MCF-7 (mean ± SEM) (MCF-7 cells [1]) | Cell death by apoptosis, % of MDA-MB-231 cell population (MDA-MB-231 cells [2]) | Morphological alterations, MCF-7 (MCF-7 cells [3]) | Maximum non-cytotoxic concentration to normal cells [4] | Cell death by apoptosis, % of MCF-7 cell population (MCF-7 cells [5]) | Monoastral Spindle (%) 24 h (MCF-7 cells [6]) | Bipolar Spindle (%) 24 h (MCF-7 cells [6]) | Mitotic spindle / microtubule organization (α-tubulin immunostaining) (MCF-7 cells [6]) | Bipolar Spindle (%) 48 h (MCF-7 cells [6]) | Monoastral Spindle (%) 48 h (MCF-7 cells [6]) | CD44-/CD24- subpopulation, MDA-MB-231 (mean ± SEM) (MDA-MB-231 cells [7]) | CD44-/CD24+ subpopulation, MDA-MB-231 (mean ± SEM) (MDA-MB-231 cells [7]) | CD44+/CD24+ subpopulation, MDA-MB-231 (mean ± SEM) (MDA-MB-231 cells [7]) | CD44+/CD24- subpopulation, MDA-MB-231 (mean ± SEM) (MDA-MB-231 cells [7]) | IC50 (MCF-7 cells [8]) | Effect on cell viability, MCF-7 (MCF-7 cells [8]) | IC50 (MDA-MB-231 cells [9]) | also measured |
| --- | --- | --- | --- | --- | --- | --- | --- | --- | --- | --- | --- | --- | --- | --- | --- | --- | --- | --- | --- | --- | --- |
| CCOC(=O)C1=C(C)NC(=S)NC1c1ccccc1O (stereo not drawn) [Compound 4p] | 2.83 ± 0.59% | 30.40 ± 9.78% | 66.42 ± 10.57% | 0.33 ± 0.20% | less pronounced manner | produced the same results | 0.4 mM | less pronounced manner | 0% | 0% | disruption of the microtubules | 0% | 0% | 0.02 ± 0.009% | 0.003 ± 0.003% | 5.507 ± 1.13% | 94.45 ± 1.13% | 87.5 µM | significant decrease in cell viability | 68.4 µM | Effect on cell viability, MDA-MB-231 (MDA-MB-231 cells [9]): significant decrease in cell viability |
| CC(=O)C1=C(C)NC(=O)NC1c1ccccc1[N+](=O)[O-] (stereo not drawn) [Compound 4x] | 2.45 ± 0.52% | 35.11 ± 19.33% | 61.35 ± 20.83% | 1.065 ± 0.97% | less pronounced manner | no significant alterations | 0.8 mM | less pronounced manner | 50.80% | 49.20% | caused monoastral spindle formation | 12.01% | 87.99% | 0.01 ± 0.003% | 0.020 ± 0.0200% | 6.08 ± 2.10% | 93.88 ± 2.12% | 276 µM | significant decrease in cell viability | 237 µM | Effect on cell viability, MDA-MB-231 (MDA-MB-231 cells [9]): significant decrease in cell viability |
